Reference: US10952992B2, “Methods of treating intraocular pressure with activators of Tie-2” (Aerpio Pharmaceuticals, Inc., priority 2015, dated 2021)
Where “and” joins values, the source holds several entries; their conditions need not be identical. Equal values may be shown once.

Assay: Example 2 iris, retina, choroid and cornea tissue concentrations
Format: in vivo, male New Zealand White rabbits
Settings: for Choroid Conc. OS / Choroid Conc. OD: choroid homogenate; for Choroid Conc. OS / Choroid tissue Conc. OS / Cornea Conc. OS / Cornea tissue Conc. OS / Iris Conc. OS / Iris tissue Conc. OS / Retina Conc. OS / Retina tissue Conc. OS: left eye; for Choroid Conc. OS / Choroid Conc. OD / Choroid tissue Conc. OS / Choroid tissue Conc. OD / Cornea Conc. OS / Cornea Conc. OD / Cornea tissue Conc. OS / Cornea tissue Conc. OD / Iris Conc. OS / Iris Conc. OD / Iris tissue Conc. OS / Iris tissue Conc. OD / Retina Conc. OS / Retina Conc. OD / Retina tissue Conc. OS / Retina tissue Conc. OD: individual animals; for Choroid Conc. OS / Choroid Conc. OD / Choroid tissue Conc. Avg. / Choroid tissue Conc. OS / Choroid tissue Conc. OD / Cornea Conc. OS / Cornea Conc. OD / Cornea tissue Conc. Avg. / Cornea tissue Conc. OS / Cornea tissue Conc. OD / Iris Conc. OS / Iris Conc. OD / Iris tissue Conc. Avg. / Iris tissue Conc. OS / Iris tissue Conc. OD / Retina Conc. OS / Retina Conc. OD / Retina tissue Conc. Avg. / Retina tissue Conc. OS / Retina tissue Conc. OD: intravitreal 2.5 mg/eye (~1.54 mg/kg), group 5; for Choroid Conc. OD / Choroid tissue Conc. OD / Cornea Conc. OD / Cornea tissue Conc. OD / Iris Conc. OD / Iris tissue Conc. OD / Retina Conc. OD / Retina tissue Conc. OD: right eye; for Choroid tissue Conc. Avg. / Cornea tissue Conc. Avg. / Iris tissue Conc. Avg. / Retina tissue Conc. Avg.: average; for Cornea Conc. OS / Cornea Conc. OD: cornea homogenate; for Iris Conc. OS / Iris Conc. OD: iris homogenate; for Retina Conc. OS / Retina Conc. OD: retina homogenate
Procedure: To measure the concentration of Compound 1 in plasma and ocular tissues following topical ocular, subcutaneous, and intravitreal administration, New Zealand White rabbits were administered Compound 1, and plasma and ocular samples were collected at pre-determined time points. Compound 1 formulations were prepared fresh on each day of dosing.
Ocular tissue samples from both eyes of each animal were collected and weights were recorded. Plasma and ocular tissue sample concentrations of Compound 1 were determined by LC-MS/MS.
Animals were anesthetized for ocular (topical) and intravitreal dosing following the 12IA7 IACUC protocol. Each rabbit received a bolus dose of test formulation either via topical ocular administration 3 times daily on Days 1 and 2 (at 0, 6, and 12 hours), and once on Day 3 (at 0 hours) into both eyes; via intravitreal administration into both eyes once on Day 1 (at 0 hours); or via subcutaneous administration 2 times daily on Days 1 and 2 (at 0 and 8 hours) and once daily on Day 3 (at 0 hours). Doses were given within an approximately 1 hour window each day where applicable.
On Day 1, for intravitreal administration, or on Day 3, for topical ocular and subcutaneous administration, at the appropriate ocular tissue collection time points, animals were euthanized and both eyes were enucleated immediately. Following enucleation, each eye was rinsed with phosphate-buffered saline. Ocular tissue samples from both eyes of each animal were collected at predetermined time points and weights were recorded. All the samples were frozen immediately on dry ice, and stored at −60° C. to −80° C. pending bioanalysis.
An LC-MS/MS method was developed for the determination of Compound 1 in rabbit aqueous tissues (plasma, aqueous and vitreous humor) and solid ocular tissue samples. A pre-study standard curve was analyzed to determine the specificity, range, and lower limit of quantitation of the method. Plasma and tissue homogenate study samples were extracted and analyzed. All the samples were treated identically to the standards.
One eight-point standard curve was used in each analytical batch. To be accepted, each batch must have had at least five of eight standards with accuracy within ±20% of nominal, except at the lower limit of quantification (LLOQ), where ±25% was acceptable.

COC(=O)N[C@@H](Cc1ccccc1)C(=O)N[C@@H](Cc1ccc(NS(=O)(=O)O)cc1)c1csc(-c2cccs2)n1 [Compound 1 free acid]
Choroid Conc. OS (24 hr): 28400 ng/mL and 43500 ng/mL | Choroid Conc. OD (24 hr): 15200 ng/mL and 57500 ng/mL | Choroid Conc. OS (48 hr): 9320 ng/mL and 14800 ng/mL | Choroid Conc. OD (48 hr): 9940 ng/mL and 9580 ng/mL | Choroid Conc. OS (72 hr): 2660 ng/mL and 2910 ng/mL | Choroid Conc. OD (72 hr): 2180 ng/mL and 2270 ng/mL | Choroid tissue Conc. Avg. (6.0 hr): 663575 ng/g | Choroid tissue Conc. OS (6.0 hr): 697400 ng/g and 766700 ng/g | Choroid tissue Conc. OD (6.0 hr): 360800 ng/g and 829400 ng/g | Choroid tissue Conc. Avg. (24 hr): 397650 ng/g | Choroid tissue Conc. OS (24 hr): 312400 ng/g and 478500 ng/g | Choroid tissue Conc. OD (24 hr): 167200 ng/g and 632500 ng/g | Choroid tissue Conc. Avg. (48 hr): 120010 ng/g | Choroid tissue Conc. OS (48 hr): 102520 ng/g | Choroid tissue Conc. OD (48 hr): 109340 ng/g and 105380 ng/g | Choroid tissue Conc. Avg. (72 hr): 27555 ng/g | Choroid tissue Conc. OS (72 hr): 29260 ng/g and 32010 ng/g | Choroid tissue Conc. OD (72 hr): 23980 ng/g and 24970 ng/g | Cornea Conc. OS (6.0 hr): 3140 ng/mL and 1180 ng/mL | Cornea Conc. OD (6.0 hr): 7910 ng/mL and 7610 ng/mL | Cornea Conc. OS (24 hr): 1190 ng/mL and 1050 ng/mL | Cornea Conc. OD (24 hr): 1520 ng/mL and 2520 ng/mL | Cornea Conc. OS (48 hr): 293 ng/mL and 571 ng/mL | Cornea Conc. OD (48 hr): 437 ng/mL and 384 ng/mL | Cornea Conc. OS (72 hr): 117 ng/mL and 45.3 ng/mL | Cornea Conc. OD (72 hr): 37.7 ng/mL and 77.2 ng/mL | Cornea tissue Conc. Avg. (6.0 hr): 54560 ng/g | Cornea tissue Conc. OS (6.0 hr): 34540 ng/g and 12980 ng/g | Cornea tissue Conc. OD (6.0 hr): 87010 ng/g and 83710 ng/g | Cornea tissue Conc. Avg. (24 hr): 17270 ng/g | Cornea tissue Conc. OS (24 hr): 13090 ng/g and 11550 ng/g | Cornea tissue Conc. OD (24 hr): 16720 ng/g and 27720 ng/g | Cornea tissue Conc. Avg. (48 hr): 4634 ng/g | Cornea tissue Conc. OS (48 hr): 3223 ng/g and 6281 ng/g | Cornea tissue Conc. OD (48 hr): 4807 ng/g and 4224 ng/g | Cornea tissue Conc. Avg. (72 hr): 762 ng/g | Cornea tissue Conc. OS (72 hr): 1287 ng/g and 498 ng/g | Cornea tissue Conc. OD (72 hr): 415 ng/g and 849 ng/g | distribution among iris, retina, choroid, cornea (FIG. 16) (intravitreal 1.54 mg/kg, free acid): generally higher in the retina and choroid | ocular tissue concentrations at 72 hours, free acid suspension relative to sodium salt solution (intravitreal administration): higher concentrations | Iris Conc. OS (6.0 hr): 13800 ng/mL and 12200 ng/mL | Iris Conc. OD (6.0 hr): 18500 ng/mL and 32100 ng/mL | Iris Conc. OS (24 hr): 14100 ng/mL and 8200 ng/mL | Iris Conc. OD (24 hr): 7670 ng/mL and 11000 ng/mL | Iris Conc. OS (48 hr): 1950 ng/mL and 2030 ng/mL | Iris Conc. OD (48 hr): 1010 ng/mL and 1110 ng/mL | Iris Conc. OS (72 hr): 1800 ng/mL and 1320 ng/mL | Iris Conc. OD (72 hr): 279 ng/mL and 351 ng/mL | Iris tissue Conc. Avg. (6.0 hr): 210650 ng/g | Iris tissue Conc. OS (6.0 hr): 151800 ng/g and 134200 ng/g | Iris tissue Conc. OD (6.0 hr): 203500 ng/g and 353100 ng/g | Iris tissue Conc. Avg. (24 hr): 112668 ng/g | Iris tissue Conc. OS (24 hr): 155100 ng/g and 90200 ng/g | Iris tissue Conc. OD (24 hr): 84370 ng/g and 121000 ng/g | Iris tissue Conc. Avg. (48 hr): 16775 ng/g | Iris tissue Conc. OS (48 hr): 21450 ng/g and 22330 ng/g | Iris tissue Conc. OD (48 hr): 11110 ng/g and 12210 ng/g | Iris tissue Conc. Avg. (72 hr): 10313 ng/g | Iris tissue Conc. OS (72 hr): 19800 ng/g and 14520 ng/g | Iris tissue Conc. OD (72 hr): 3069 ng/g and 3861 ng/g | Retina Conc. OS (6.0 hr): 154000 ng/mL and 120000 ng/mL | Retina Conc. OD (6.0 hr): 146000 ng/mL and 303000 ng/mL | Retina Conc. OS (24 hr): 98900 ng/mL and 198000 ng/mL | Retina Conc. OD (24 hr): 130000 ng/mL and 145000 ng/mL | Retina Conc. OS (48 hr): 14000 ng/mL and 101000 ng/mL | Retina Conc. OD (48 hr): 66700 ng/mL and 65500 ng/mL | Retina Conc. OS (72 hr): 10800 ng/mL and 12900 ng/mL | Retina Conc. OD (72 hr): 9890 ng/mL and 6070 ng/mL | Retina tissue Conc. Avg. (6.0 hr): 1988250 ng/g | Retina tissue Conc. OS (6.0 hr): 1694000 ng/g and 1320000 ng/g | Retina tissue Conc. OD (6.0 hr): 1606000 ng/g | Retina tissue Conc. Avg. (24 hr): 1572725 ng/g | Retina tissue Conc. OS (24 hr): 1087900 ng/g and 2178000 ng/g | Retina tissue Conc. OD (24 hr): 1430000 ng/g and 1595000 ng/g | Retina tissue Conc. Avg. (48 hr): 679800 ng/g | Retina tissue Conc. OS (48 hr): 154000 ng/g and 1111000 ng/g | Retina tissue Conc. OD (48 hr): 733700 ng/g and 720500 ng/g | Retina tissue Conc. Avg. (72 hr): 109065 ng/g | Retina tissue Conc. OS (72 hr): 118800 ng/g and 141900 ng/g | Retina tissue Conc. OD (72 hr): 108790 ng/g and 66770 ng/g | distribution among iris, retina, choroid, cornea (FIG. 14) (subcutaneous 5 mg/kg/dose, free acid): generally higher in the iris and choroid
